{"source": "ChEMBL document CHEMBL1145284", "about": "“Combined target-based and ligand-based drug design approach as a tool to define a novel 3D-pharmacophore model of human A3 adenosine receptor antagonists: pyrazolo[4,3-e]1,2,4-triazolo[1,5-c]pyrimidine derivatives as a key study” (J Med Chem, 2005)"}
{"molecular_target": "T1, Adenosine receptor A3 (Homo sapiens, UniProt P0DMS8)", "T1 sequence (P0DMS8 whole entry)": "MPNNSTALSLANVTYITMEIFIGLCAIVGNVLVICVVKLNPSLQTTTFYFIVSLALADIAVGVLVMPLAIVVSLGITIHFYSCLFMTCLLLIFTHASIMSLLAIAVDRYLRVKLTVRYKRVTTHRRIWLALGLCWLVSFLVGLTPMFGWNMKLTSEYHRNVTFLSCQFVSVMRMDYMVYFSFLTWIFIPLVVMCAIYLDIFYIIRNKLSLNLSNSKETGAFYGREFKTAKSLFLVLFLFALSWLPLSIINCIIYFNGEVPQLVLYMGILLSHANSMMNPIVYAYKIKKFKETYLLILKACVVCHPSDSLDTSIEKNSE", "units": {"Ki": "nM"}, "description": "Binding affinity for human adenosine A3 receptor"}
{"compound": "CCCCCCCCn1cc2c(nc(NC(=O)NCCCCC)n3nc(-c4ccco4)nc23)n1", "Ki": 7.83}
{"compound": "CC(C)CCn1cc2c(nc(NC(=O)NC(C)C)n3nc(-c4ccco4)nc23)n1", "Ki": 65}
{"compound": "CC(C)NC(=O)Nc1nc2nn(CCCc3ccccc3)cc2c2nc(-c3ccco3)nn12", "Ki": 55}
{"compound": "CC(C)CCn1cc2c(nc(NC(=O)CCCN)n3nc(-c4ccco4)nc23)n1", "Ki": 90}
{"compound": "Cc1ccc(NC(=O)Nc2nc3nn(CC4CCCCC4)cc3c3nc(-c4ccco4)nn23)cc1", "Ki": 5.94}
{"compound": "CC(C)(C)NC(=O)Nc1nc2nn(CCCc3ccccc3)cc2c2nc(-c3ccco3)nn12", "Ki": 65}
{"compound": "CC(C)NC(=O)Nc1nc2nn(CCc3ccccc3)cc2c2nc(-c3ccco3)nn12", "Ki": 9}
{"compound": "CC(C)CCn1cc2c(nc(NC(=O)NC(C)(C)C)n3nc(-c4ccco4)nc23)n1", "Ki": 39}
{"compound": "CCCn1cc2c(nc(NC(=O)NC(C)C)n3nc(-c4ccco4)nc23)n1", "Ki": 21}
{"compound": "NCC(=O)Nc1nc2nn(CCc3ccccc3)cc2c2nc(-c3ccco3)nn12", "Ki": 163}
{"compound": "CCCCCCCCn1cc2c(nc(NC(=O)Nc3ccc(C)cc3)n3nc(-c4ccco4)nc23)n1", "Ki": 4.48}
{"compound": "CCCCCNC(=O)Nc1nc2nn(C)cc2c2nc(-c3ccco3)nn12", "Ki": 1.95}
{"compound": "CC(C)(C)NC(=O)Nc1nc2nn(CCc3ccccc3)cc2c2nc(-c3ccco3)nn12", "Ki": 4.9}
{"compound": "NCCCC(=O)Nc1nc2nn(CCc3ccccc3)cc2c2nc(-c3ccco3)nn12", "Ki": 65}
{"compound": "NCCC(=O)Nc1nc2nn(CCc3ccccc3)cc2c2nc(-c3ccco3)nn12", "Ki": 80}
{"compound": "CCOC(=O)Cc1ccc(NC(=O)Nc2nc3nn(C)cc3c3nc(-c4ccco4)nn23)cc1", "Ki": 0.82}
{"compound": "CCOC(=O)Cc1ccc(NC(=O)Nc2nc3nn(CC4CCCCC4)cc3c3nc(-c4ccco4)nn23)cc1", "Ki": 6.95}
{"compound": "CCCCCNC(=O)Nc1nc2nn(CC3CCCCC3)cc2c2nc(-c3ccco3)nn12", "Ki": 3.98}
{"compound": "O=C(Nc1nc2nn(CC3CCCCC3)cc2c2nc(-c3ccco3)nn12)NC1CCCCC1", "Ki": 6.7}
{"compound": "CCCCCCCCn1cc2c(nc(NC(=O)Nc3ccc(CC(=O)OCC)cc3)n3nc(-c4ccco4)nc23)n1", "Ki": 9.97}
{"compound": "CC(C)(C)OC(=O)NCCCC(=O)Nc1nc2nn(CCc3ccccc3)cc2c2nc(-c3ccco3)nn12", "Ki": 1480}
{"compound": "CCCCCNC(=O)Nc1nc2nn(CCC(C)C)cc2c2nc(-c3ccco3)nn12", "Ki": 8.09}
{"compound": "CCOC(=O)Cc1ccc(NC(=O)Nc2nc3nn(CCC(C)C)cc3c3nc(-c4ccco4)nn23)cc1", "Ki": 11.9}
{"compound": "CC(C)CCn1cc2c(nc(NC(=O)NC3CCCCC3)n3nc(-c4ccco4)nc23)n1", "Ki": 20.5}
{"compound": "CC(C)CCn1cc2c(nc(NC(=O)CCCNC(=O)OC(C)(C)C)n3nc(-c4ccco4)nc23)n1", "Ki": 2490}
{"compound": "CCCCCCCCn1cc2c(nc(NC(=O)NC3CCCCC3)n3nc(-c4ccco4)nc23)n1", "Ki": 16.3}
{"compound": "Nc1nc2nn(CC3CCCCC3)cc2c2nc(-c3ccco3)nn12", "Ki": 1720}
{"compound": "CCCCCCCCn1cc2c(nc(N)n3nc(-c4ccco4)nc23)n1", "Ki": 2050}
{"compound": "Cc1ccc(NC(=O)Nc2nc3nn(CCC(C)C)cc3c3nc(-c4ccco4)nn23)cc1", "Ki": 7.41}
{"compound": "CCCn1cc2c(nc(NC(=O)NC(C)(C)C)n3nc(-c4ccco4)nc23)n1", "Ki": 15}
{"compound": "CC(C)=CCn1cc2c(nc(N)n3nc(-c4ccco4)nc23)n1", "Ki": 811}
